# Laboratory results reported in patent US20200110072A1, “IMAGING METHODS TO ASSESS THE EFFICACY OF ANTICANCER DRUGS IN VITRO USING SPONTANEOUSLY-FORMING SPHEROIDS” (ROWAN UNIVERSITY, priority 2016, published 2020).
# pIC50: −log10 of the molar value. Entries after “also recorded” stand apart in the source; their conditions may differ.
# What was measured:
# [1] = system: spheroids^MARY-X; test: Spheroids^MARY-X drug screen: bright-field image analysis of spheroid dissolution (dissolution indices); type: cell-based, human; conditions: for Response (deviation from well-circumscribed spheroid edge / spheroid dissolution): increasing doses, bright-field images
# Description: In particular, the invention provides novel methods for determining drug response and calculating drug potency. In drug screens according to the invention spheroids or spheroids^MARY-X are seeded in multi-well plates, treated with vehicle only (control) and increasing doses of one or more drugs of interest. Following a 24-hr treatment period each well undergoes analysis to assess dissolution of the spheroids^MARY-X (see FIGS. 4A and 4B).
# In exemplary embodiments the dissolution index is determined by applying an image analysis program on ImageJ that measures the circularity of an object's area and perimeter where ‘1’ signifies a perfect circle (i.e. intact spheroid) and numbers approaching ‘0’ signify loss of circularity (i.e. dissolute spheroid). Note that ‘0’ signifies a straight line and can never be achieved in image analysis of spheroids given the innate circularity of individual cells (see FIG. 4A). The induction of apoptosis correlates with the loss of well-circumscribed edges of the usually tight, compact spheroids, i.e. dissolution is consistent with cell death of the spheroid/embolus.
# Spheroids^MARY-X Dissolution Indices: The spheroid dissolution index was determined by applying an image analysis program on ImageJ that measures the circularity of an object's area and perimeter where ‘1’ signifies a perfect circle (i.e. intact spheroid) and numbers approaching ‘0’ signify loss of circularity (i.e. dissolute spheroid). Note that ‘0’ signifies a straight line and can never be achieved in image analysis of spheroids given the innate circularity of individual cells.
# Drug Screen: The 40-100 μm spheroids were distributed in equal number (˜30-50 spheroids/well) to a multi-well plate. The spheroids^MARY-X was treated with vehicle only (DMSO) and increasing doses of drug of interest in each 24-well plate. Following 24 hr treatment periods each well was imaged and analyzed with ImageJ for measurement of dissolution of the spheroids^MARY-X. The induction of apoptosis is correlated with the loss of the well circumscribed edges of the usually tight, compact spheroids^MARY-X i.e. dissolution is consistent with cell death of the spheroid/embolus.
# [2] = system: spheroids^MARY-X; test: Spheroids^MARY-X dual-fluorescence viability assay (acridine orange / propidium iodide, Cellometer K2); type: cell-based, human; conditions: 24-hour treatment; for Response in dual fluorescence viability assay: AO/PI staining; for pIC50: Homo sapiens, AO/PI, read-out: IC50 from dose-response curve, dual fluorescence viability assay
# Description: Spheroids^MARY-X Viability Assay: Dual-fluorescent assays were performed on a Cellometer K2 (Nexcelom Biosciences, Lawrence, Mass.) using the viability stains, acridine orange and propium iodide.
# Dissolution indices vs. standard viability assay: In an effort to validate response data acquired by image analysis (i.e. dissolution indices) an alternate method, traditionally used to determine and quantify cell viability, and was performed on a replicate drug screen. This drug screen reproduced drug dose parameters of paclitaxel (PTX), gambogic acid (GA) and MAD28. Viability was measured by dual fluorescence analysis of propidium iodide (PI) and acridine orange (AO). Following the 24-hour treatment period, spheroids^MARY-X were analyzed using the Cellometer K2 in the dual-fluorescence viability assay. The nuclear stains AO and PI were added to the control (vehicle only) and treated spheroids^MARY-X, where AO stains both live and dead (green) cells and PI stains only dead (orange) cells with compromised membranes. Fluorescent images presented here are one of eight random fields captured for the viability analyses.
# [3] = system: triple-negative breast cancer 2-D culture models; conditions: preclinical analysis; cited from earlier work
smiles,measurement,setting,value
"CC(C)C[C@H](NC(=O)[C@H](Cc1ccccc1)NC(=O)c1cnccn1)B(O)O [Bortezomib, bortezomib]",Response (deviation from well-circumscribed spheroid edge / spheroid dissolution),[1]; 24-hour treatment,Low - Moderate
same,Response (deviation from well-circumscribed spheroid edge / spheroid dissolution),"[1]; 24-hour treatment, listed as bortexomib",Low to moderate
same,Response (deviation from well-circumscribed spheroid edge / spheroid dissolution),"[1]; 24-hour treatment, listed as bortezomab",slight response
same,Response (deviation from well-circumscribed spheroid edge / spheroid dissolution),"[1]; 24-hour treatment, listed as bortezomib",slight response; also recorded: low response
"N.N.[Cl][Pt][Cl] [Cisplatin, cisplatin]",Response (deviation from well-circumscribed spheroid edge / spheroid dissolution),[1]; 24-hour treatment,No
same,Response (deviation from well-circumscribed spheroid edge / spheroid dissolution),"[1]; 24-hour treatment, listed as cisplatin",no drug response
"CC(=O)O[C@H]1C(=O)[C@@]2(C)[C@H]([C@H](OC(=O)c3ccccc3)[C@]3(O)C[C@H](OC(=O)[C@H](O)[C@@H](NC(=O)c4ccccc4)c4ccccc4)C(C)=C1C3(C)C)[C@]1(OC(C)=O)CO[C@@H]1C[C@@H]2O [Paclitaxel, paclitaxel]",Response (deviation from well-circumscribed spheroid edge / spheroid dissolution),[1]; 24-hour treatment,virtually ineffective
same,pIC50,"[1]; 24-hour treatment, ImageJ circularity, read-out: IC50 from dissolution indices dose-response curve",5.11
same,pIC50,"[1]; Homo sapiens, 24 h, 24-hour treatment, ImageJ circularity, read-out: IC50 from dissolution indices dose-response curve",5.11
same,Response,[1]; at a 5.0 μM concentration,no to low
same,Response in dual fluorescence viability assay,[2],ineffective at producing a ‘complete’ response
same,Response in dual fluorescence viability assay,[2]; listed as PTX,little if any activity
same,pIC50,[2],5.27
"COc1cccc2c1C(=O)c1c(O)c3c(c(O)c1C2=O)C[C@@](O)(C(=O)CO)C[C@@H]3O[C@H]1C[C@H](N)[C@H](O)[C@H](C)O1 [Doxorubicin, doxorubicin]",Response (deviation from well-circumscribed spheroid edge / spheroid dissolution),[1]; 24-hour treatment,mixed response
same,Response (deviation from well-circumscribed spheroid edge / spheroid dissolution),"[1]; 24-hour treatment, listed as Doxorubicin (DOX)",Moderate - Complete
"CS(=O)(=O)CCNCc1ccc(-c2ccc3ncnc(Nc4ccc(OCc5cccc(F)c5)c(Cl)c4)c3c2)o1 [Lapatinib, lapatinib]",Response (deviation from well-circumscribed spheroid edge / spheroid dissolution),[1]; 24-hour treatment,Low - Moderate
same,Response (deviation from well-circumscribed spheroid edge / spheroid dissolution),"[1]; 24-hour treatment, listed as lapatinib",Low to moderate; also recorded: slight response; also recorded: low response
"CN(Cc1cnc2nc(N)nc(N)c2n1)c1ccc(C(=O)N[C@@H](CCC(=O)O)C(=O)O)cc1 [Methotrexate, methotrexate]",Response (deviation from well-circumscribed spheroid edge / spheroid dissolution),[1]; 24-hour treatment,no response and No
same,Response (deviation from well-circumscribed spheroid edge / spheroid dissolution),"[1]; 24-hour treatment, listed as methotrexate",no drug response
CC(C)NCCCn1c(Sc2cc3c(cc2I)OCO3)nc2c(N)ncnc21 [PU-H71],Response (deviation from well-circumscribed spheroid edge / spheroid dissolution),[1]; 24-hour treatment,no response
same,Response,[3],complete response
CC(C)=CCC[C@]1(C)C=Cc2c(O)c3c(c(CC=C(C)C)c2O1)O[C@]12C(=C[C@@H]4C[C@H]1C(C)(C)O[C@@]2(C/C=C(/C)C(=O)O)C4=O)C3=O [Gambogic acid],Response (deviation from well-circumscribed spheroid edge / spheroid dissolution),[1]; 24-hour treatment,complete
same,pIC50,"[1]; Homo sapiens, as printed in b33 for gambogic acid, read-out: IC50, spheroidal dissolution and apoptosis",6.27
same,pIC50,"[1]; Homo sapiens, read-out: IC50 from dissolution indices",6.27
same,Response (spheroid dissolution),[1]; at 2.5 μM concentration (MAD44: similar concentrations),complete spheroid dissolution
same,Response in dual fluorescence viability assay,[2],complete
same,Response in dual fluorescence viability assay,[2]; listed as GA,complete response
same,pIC50,[2],5.92
